Experimental data published in patent US20220265629A1, “TREATMENT OF SYSTOLIC DYSFUNCTION AND HEART FAILURE WITH REDUCED EJECTION FRACTION WITH THE COMPOUND (R)-4-(1-((3-(DIFLUOROMETHYL)-1-METHYL-1H-PYRAZOL-4-YL)SULFONYL)-1-FLUOROETHYL)-N-(ISOXAZOL-3-YL)PIPERIDINE-1-CARBOXAMIDE” (MyoKardia, Inc., priority 2019, published 2022).

System: patients with stable HFrEF
Assay: HFrEF study Part 2 (MAD Cohorts A-D): safety (TEAEs, serum troponin, ECG, Holter)
Assay type: in vivo, human
Description: Safety and efficacy assessments were conducted by measuring patients' vital signs and laboratory parameters; performing TTE to measure, e.g., systolic ejection time; performing electrocardiograms (e.g., 12-lead ECG), real-time ECG telemetry (e.g., at least 3-lead), and Holter ECG; and measuring levels of troponin (e.g., troponin I and/or troponin T) and […].
The following safety laboratory parameters were measured: (1) hematology parameters (CBC, including differential count, and platelet count); (2) serum chemistry parameters (e.g., sodium, potassium, chloride, bicarbonate, calcium, magnesium, urea, creatinine, ALP, ALT, AST, total bilirubin, glucose, and CPK); and (3) urinalysis parameters (e.g., pH, protein, glucose, leukocyte esterase, and blood).
Abnormal and/or rising troponin values (as per investigator's judgment and taking into account potential baseline troponin elevation frequently observed in heart failure) led to the patient being clinically evaluated for possible myocardial ischemia. […] The entire clinical context (e.g., signs, symptoms, new ECG changes, new troponin, and CK-MB abnormalities) was evaluated and correlated with any other relevant clinical findings, patient's medical history, and laboratory data to determine the clinical significance of the findings. Troponin results performed on Day 2 of Part 1 (SAD) and Day 10 of Part 2 (MAD) at a local lab were reviewed prior to the patient being discharged the next day.

[1] = Cohort A + C 75 mg BID (n = 15)
[2] = serum, MAD cohorts, Total Compound I (n = 22), ULN = 0.014
[3] = serum, MAD cohorts, Total Compound I (n = 30), ULN = 0.03

Cn1cc(S(=O)(=O)[C@@](C)(F)C2CCN(C(=O)Nc3ccon3)CC2)c(C(F)F)n1 [Compound I, (R)-4-(1-((3-(difluoromethyl)-1-methyl-1H-pyrazol-4-yl)sulfonyl)-1-fluoroethyl)-N-(isoxazol-3-yl)piperidine-1-carboxamide]
patients with troponin increase (50 mg): 2/9
patients with troponin increase (75 mg): 2/15
patients with troponin increase (100 mg): 3/6
Any AE leading to death, number of patients (%) [1]: 0 n (%)
Any TEAE leading to permanent treatment discontinuation, number of patients (%) [1]: 0 n (%)
Any TEAE, number of patients (%) [1]: 6 (40.0) n (%)
Any serious TEAE, number of patients (%) [1]: 1 (6.7) n (%)
TEAE: Abdominal discomfort [1]: 0 n (%)
TEAE: Alanine aminotransferase increased [1]: 1 (6.7) n (%)
TEAE: Anemia [1]: 1 (6.7) n (%)
TEAE: Application site erosion [1]: 0 n (%)
TEAE: Arthralgia [1]: 0 n (%)
TEAE: Arthropod bite [1]: 0 n (%)
TEAE: Back pain [1]: 0 n (%)
TEAE: Blood creatine phosphokinase increased [1]: 0 n (%)
TEAE: Blood creatinine increased [1]: 0 n (%)
TEAE: Cough [1]: 1 (6.7) n (%)
TEAE: Dermatitis contact [1]: 0 n (%)
TEAE: Dry eye [1]: 0 n (%)
TEAE: Fatigue [1]: 2 (13.3) n (%)
TEAE: Fluid overload [1]: 0 n (%)
TEAE: Gingival pain [1]: 0 n (%)
TEAE: Hyperkalemia [1]: 0 n (%)
TEAE: Infusion site erythema [1]: 0 n (%)
TEAE: Nasopharyngitis [1]: 0 n (%)
TEAE: Rash [1]: 0 n (%)
TEAE: Renal failure [1]: 0 n (%)
TEAE: Renal impairment [1]: 0 n (%)
TEAE: Testicular pain [1]: 0 n (%)
TEAE: Troponin increased [1]: 1 (6.7) n (%)
TEAE: Ventricular tachycardia [1]: 0 n (%)
Any AE leading to death, number of patients (%) (Cohort B 50 mg BID (n = 9)): 0 n (%)
Any TEAE leading to permanent treatment discontinuation, number of patients (%) (Cohort B 50 mg BID (n = 9)): 0 n (%)
Any TEAE, number of patients (%) (Cohort B 50 mg BID (n = 9)): 7 (77.8) n (%)
Any serious TEAE, number of patients (%) (Cohort B 50 mg BID (n = 9)): 0 n (%)
TEAE: Abdominal discomfort (Cohort B 50 mg BID (n = 9)): 1 (11.1) n (%)
TEAE: Alanine aminotransferase increased (Cohort B 50 mg BID (n = 9)): 1 (11.1) n (%)
TEAE: Anemia (Cohort B 50 mg BID (n = 9)): 0 n (%)
TEAE: Application site erosion (Cohort B 50 mg BID (n = 9)): 1 (11.1) n (%)
TEAE: Arthralgia (Cohort B 50 mg BID (n = 9)): 0 n (%)
TEAE: Arthropod bite (Cohort B 50 mg BID (n = 9)): 0 n (%)
TEAE: Back pain (Cohort B 50 mg BID (n = 9)): 0 n (%)
TEAE: Blood creatine phosphokinase increased (Cohort B 50 mg BID (n = 9)): 1 (11.1) n (%)
TEAE: Blood creatinine increased (Cohort B 50 mg BID (n = 9)): 0 n (%)
TEAE: Cough (Cohort B 50 mg BID (n = 9)): 0 n (%)
TEAE: Dermatitis contact (Cohort B 50 mg BID (n = 9)): 2 (22.2) n (%)
TEAE: Dry eye (Cohort B 50 mg BID (n = 9)): 0 n (%)
TEAE: Fatigue (Cohort B 50 mg BID (n = 9)): 0 n (%)
TEAE: Fluid overload (Cohort B 50 mg BID (n = 9)): 1 (11.1) n (%)
TEAE: Gingival pain (Cohort B 50 mg BID (n = 9)): 0 n (%)
TEAE: Hyperkalemia (Cohort B 50 mg BID (n = 9)): 1 (11.1) n (%)
TEAE: Infusion site erythema (Cohort B 50 mg BID (n = 9)): 1 (11.1) n (%)
TEAE: Nasopharyngitis (Cohort B 50 mg BID (n = 9)): 0 n (%)
TEAE: Rash (Cohort B 50 mg BID (n = 9)): 1 (11.1) n (%)
TEAE: Renal failure (Cohort B 50 mg BID (n = 9)): 0 n (%)
TEAE: Renal impairment (Cohort B 50 mg BID (n = 9)): 0 n (%)
TEAE: Testicular pain (Cohort B 50 mg BID (n = 9)): 0 n (%)
TEAE: Troponin increased (Cohort B 50 mg BID (n = 9)): 0 n (%)
TEAE: Ventricular tachycardia (Cohort B 50 mg BID (n = 9)): 1 (11.1) n (%)
Any AE leading to death, number of patients (%) (Cohort D 100 mg BID (n = 6)): 0 n (%)
Any TEAE leading to permanent treatment discontinuation, number of patients (%) (Cohort D 100 mg BID (n = 6)): 0 n (%)
Any TEAE, number of patients (%) (Cohort D 100 mg BID (n = 6)): 4 (66.7) n (%)
Any serious TEAE, number of patients (%) (Cohort D 100 mg BID (n = 6)): 0 n (%)
TEAE: Abdominal discomfort (Cohort D 100 mg BID (n = 6)): 0 n (%)
TEAE: Alanine aminotransferase increased (Cohort D 100 mg BID (n = 6)): 0 n (%)
TEAE: Anemia (Cohort D 100 mg BID (n = 6)): 0 n (%)
TEAE: Application site erosion (Cohort D 100 mg BID (n = 6)): 0 n (%)
TEAE: Arthralgia (Cohort D 100 mg BID (n = 6)): 0 n (%)
TEAE: Arthropod bite (Cohort D 100 mg BID (n = 6)): 1 (16.7) n (%)
TEAE: Back pain (Cohort D 100 mg BID (n = 6)): 0 n (%)
TEAE: Blood creatine phosphokinase increased (Cohort D 100 mg BID (n = 6)): 0 n (%)
TEAE: Blood creatinine increased (Cohort D 100 mg BID (n = 6)): 1 (16.7) n (%)
TEAE: Cough (Cohort D 100 mg BID (n = 6)): 0 n (%)
TEAE: Dermatitis contact (Cohort D 100 mg BID (n = 6)): 0 n (%)
TEAE: Dry eye (Cohort D 100 mg BID (n = 6)): 0 n (%)
TEAE: Fatigue (Cohort D 100 mg BID (n = 6)): 0 n (%)
TEAE: Fluid overload (Cohort D 100 mg BID (n = 6)): 0 n (%)
TEAE: Gingival pain (Cohort D 100 mg BID (n = 6)): 1 (16.7) n (%)
TEAE: Hyperkalemia (Cohort D 100 mg BID (n = 6)): 0 n (%)
TEAE: Infusion site erythema (Cohort D 100 mg BID (n = 6)): 0 n (%)
TEAE: Nasopharyngitis (Cohort D 100 mg BID (n = 6)): 0 n (%)
TEAE: Rash (Cohort D 100 mg BID (n = 6)): 0 n (%)
TEAE: Renal failure (Cohort D 100 mg BID (n = 6)): 0 n (%)
TEAE: Renal impairment (Cohort D 100 mg BID (n = 6)): 0 n (%)
TEAE: Testicular pain (Cohort D 100 mg BID (n = 6)): 0 n (%)
TEAE: Troponin increased (Cohort D 100 mg BID (n = 6)): 1 (16.7) n (%)
TEAE: Ventricular tachycardia (Cohort D 100 mg BID (n = 6)): 1 (16.7) n (%)
QTc (MAD cohorts): No increase
patients with treatment-emergent adverse events (TEAEs) (MAD cohorts, 50-100 mg BID): 17 (57%)
patients with transient asymptomatic increase in troponin I or hs-troponin T (MAD cohorts, all doses): 7 (23%)
Any AE leading to death, number of patients (%) (Total Compound I (n = 30)): 0 n (%)
Any TEAE leading to permanent treatment discontinuation, number of patients (%) (Total Compound I (n = 30)): 0 n (%)
Any TEAE, number of patients (%) (Total Compound I (n = 30)): 17 (56.7) n (%)
Any serious TEAE, number of patients (%) (Total Compound I (n = 30)): 1 (3.3) n (%)
TEAE: Abdominal discomfort (Total Compound I (n = 30)): 1 (3.3) n (%)
TEAE: Alanine aminotransferase increased (Total Compound I (n = 30)): 2 (6.7) n (%)
TEAE: Anemia (Total Compound I (n = 30)): 1 (3.3) n (%)
TEAE: Application site erosion (Total Compound I (n = 30)): 1 (3.3) n (%)
TEAE: Arthralgia (Total Compound I (n = 30)): 0 n (%)
TEAE: Arthropod bite (Total Compound I (n = 30)): 1 (3.3) n (%)
TEAE: Back pain (Total Compound I (n = 30)): 0 n (%)
TEAE: Blood creatine phosphokinase increased (Total Compound I (n = 30)): 1 (3.3) n (%)
TEAE: Blood creatinine increased (Total Compound I (n = 30)): 1 (3.3) n (%)
TEAE: Cough (Total Compound I (n = 30)): 1 (3.3) n (%)
TEAE: Dermatitis contact (Total Compound I (n = 30)): 2 (6.7) n (%)
TEAE: Dry eye (Total Compound I (n = 30)): 0 n (%)
TEAE: Fatigue (Total Compound I (n = 30)): 2 (6.7) n (%)
TEAE: Fluid overload (Total Compound I (n = 30)): 1 (3.3) n (%)
TEAE: Gingival pain (Total Compound I (n = 30)): 1 (3.3) n (%)
TEAE: Hyperkalemia (Total Compound I (n = 30)): 1 (3.3) n (%)
TEAE: Infusion site erythema (Total Compound I (n = 30)): 1 (3.3) n (%)
TEAE: Nasopharyngitis (Total Compound I (n = 30)): 0 n (%)
TEAE: Rash (Total Compound I (n = 30)): 1 (3.3) n (%)
TEAE: Renal failure (Total Compound I (n = 30)): 0 n (%)
TEAE: Renal impairment (Total Compound I (n = 30)): 0 n (%)
TEAE: Testicular pain (Total Compound I (n = 30)): 0 n (%)
TEAE: Troponin increased (Total Compound I (n = 30)): 2 (6.7) n (%)
TEAE: Ventricular tachycardia (Total Compound I (n = 30)): 2 (6.7) n (%)
hs-troponin T, max change from baseline [2]: (0.041) ng/mL
hs-troponin T, max peak troponin post dose [2]: (0.052) ng/mL
hs-troponin T, median change from baseline [2]: 0.005 ng/mL
hs-troponin T, median peak troponin post dose [2]: 0.020 ng/mL
Troponin I, max change from baseline [3]: (0.87) ng/mL
Troponin I, max peak troponin post dose [3]: (0.88) ng/mL
Troponin I, median change from baseline [3]: 0.010 ng/mL
Troponin I, median peak troponin post dose [3]: 0.025 ng/mL
safety and tolerability (single dose up to 550 mg and 50 to 100 mg BID for 7 days, HFrEF subjects): safe and generally well-tolerated
